Numbers after ± are expanded uncertainties.
Experiment: activity coefficient (dimensionless); of the first substance listed, at infinite dilution; xn = mol fraction of the nth substance listed
Details: 101 kPa, Liquid, Chromatography, x1 = 0

Compound	activity coefficient (303.15 K)	activity coefficient (313.15 K)	activity coefficient (323.15 K)	activity coefficient (333.15 K)	activity coefficient (343.15 K)	activity coefficient (353.15 K)	activity coefficient (363.15 K)
Cc1ccccc1C [1,2-dimethylbenzene] + CCCCn1cc[n+](C)c1.O=[N+]([O-])[O-]	4.31 ± 0.24	4.38 ± 0.24	4.44 ± 0.25	4.49 ± 0.25	4.54 ± 0.25	4.58 ± 0.25	4.63 ± 0.26
Cc1cccc(C)c1 [1,3-dimethylbenzene] + CCCCn1cc[n+](C)c1.O=[N+]([O-])[O-]	5.42 ± 0.3	5.47 ± 0.3	5.5 ± 0.3	5.55 ± 0.31	5.57 ± 0.31	5.62 ± 0.31	5.61 ± 0.31
Cc1ccc(C)cc1 [1,4-dimethylbenzene] + CCCCn1cc[n+](C)c1.O=[N+]([O-])[O-]	5.06 ± 0.28	5.17 ± 0.29	5.16 ± 0.29	5.22 ± 0.29	5.22 ± 0.29	5.24 ± 0.29	5.26 ± 0.29
CC(C)=O [acetone] + CCCCn1cc[n+](C)c1.O=[N+]([O-])[O-]	1.11 ± 0.055	1.12 ± 0.055	1.13 ± 0.056	1.16 ± 0.058	1.17 ± 0.059	1.23 ± 0.062	1.25 ± 0.063
CC#N [acetonitrile] + CCCCn1cc[n+](C)c1.O=[N+]([O-])[O-]	0.6 ± 0.035	0.605 ± 0.035	0.615 ± 0.035	0.62 ± 0.035	0.626 ± 0.036	0.63 ± 0.036	0.644 ± 0.036
c1ccccc1 [benzene] + CCCCn1cc[n+](C)c1.O=[N+]([O-])[O-]	1.85 ± 0.1	1.88 ± 0.1	1.91 ± 0.1	1.95 ± 0.11	2.01 ± 0.11	1.99 ± 0.11	2.02 ± 0.11
C1CCCCC1 [cyclohexane] + CCCCn1cc[n+](C)c1.O=[N+]([O-])[O-]	29.8 ± 1.7	27.6 ± 1.5	25.6 ± 1.4	23.9 ± 1.3	22.4 ± 1.2	21.1 ± 1.2	19.9 ± 1.1
ClCCl [dichloromethane] + CCCCn1cc[n+](C)c1.O=[N+]([O-])[O-]	0.464 ± 0.031	0.491 ± 0.032	0.526 ± 0.033	0.552 ± 0.033	0.579 ± 0.034	0.602 ± 0.035	0.64 ± 0.036
CCO [ethanol] + CCCCn1cc[n+](C)c1.O=[N+]([O-])[O-]	0.564 ± 0.034	0.543 ± 0.033	0.529 ± 0.033	0.52 ± 0.033	0.511 ± 0.032	0.508 ± 0.032	0.507 ± 0.032
CCOC(C)=O [ethyl acetate] + CCCCn1cc[n+](C)c1.O=[N+]([O-])[O-]	2.93 ± 0.16	2.98 ± 0.17	3.01 ± 0.17	3.04 ± 0.17	3.07 ± 0.17	3.18 ± 0.18	3.25 ± 0.18
ClC(Cl)(Cl)Cl [tetrachloromethane] + CCCCn1cc[n+](C)c1.O=[N+]([O-])[O-]	2.09 ± 0.12	2.17 ± 0.12	2.4 ± 0.13	2.52 ± 0.14	2.65 ± 0.15	2.81 ± 0.15	2.83 ± 0.16
Cc1ccccc1 [toluene] + CCCCn1cc[n+](C)c1.O=[N+]([O-])[O-]	3.09 ± 0.17	3.15 ± 0.17	3.19 ± 0.18	3.24 ± 0.18	3.29 ± 0.18	3.33 ± 0.18	3.37 ± 0.19

Results, then the compound that gave them:

activity coefficient (303.15 K)	activity coefficient (313.15 K)	activity coefficient (323.15 K)	activity coefficient (333.15 K)	activity coefficient (343.15 K)	activity coefficient (353.15 K)	activity coefficient (363.15 K)	Compound
5.53 ± 0.31	5.55 ± 0.31	5.56 ± 0.31	5.56 ± 0.31	5.6 ± 0.31	5.59 ± 0.31	5.61 ± 0.31	CCc1ccccc1 [ethylbenzene] + CCCCn1cc[n+](C)c1.O=[N+]([O-])[O-]
105 ± 5.9	97.1 ± 5.4	89.9 ± 5	83.6 ± 4.7	78.1 ± 4.4	73.2 ± 4.1	68.9 ± 3.8	CCCCCCC [heptane] + CCCCn1cc[n+](C)c1.O=[N+]([O-])[O-]
63.9 ± 3.6	58.1 ± 3.2	53.1 ± 3	48.8 ± 2.7	45.1 ± 2.5	41.8 ± 2.3	39 ± 2.2	CCCCCC [hexane] + CCCCn1cc[n+](C)c1.O=[N+]([O-])[O-]
0.322 ± 0.029	0.318 ± 0.029	0.315 ± 0.029	0.31 ± 0.029	0.307 ± 0.029	0.303 ± 0.029	0.302 ± 0.029	CO [methanol] + CCCCn1cc[n+](C)c1.O=[N+]([O-])[O-]
45.3 ± 2.5	42.1 ± 2.4	39.4 ± 2.2	37 ± 2.1	34.9 ± 1.9	33 ± 1.8	31.2 ± 1.7	CC1CCCCC1 [methylcyclohexane] + CCCCn1cc[n+](C)c1.O=[N+]([O-])[O-]
263 ± 15	238 ± 13	218 ± 12	200 ± 11	184 ± 10	171 ± 9.6	159 ± 8.9	CCCCCCCCC [nonane] + CCCCn1cc[n+](C)c1.O=[N+]([O-])[O-]
168 ± 9.4	154 ± 8.6	141 ± 7.9	131 ± 7.3	121 ± 6.8	113 ± 6.3	106 ± 5.9	CCCCCCCC [octane] + CCCCn1cc[n+](C)c1.O=[N+]([O-])[O-]
0.765 ± 0.04	0.732 ± 0.039	0.706 ± 0.038	0.687 ± 0.037	0.674 ± 0.037	0.662 ± 0.037	0.654 ± 0.036	CCCO [propan-1-ol] + CCCCn1cc[n+](C)c1.O=[N+]([O-])[O-]
0.28 ± 0.028	0.316 ± 0.029	0.334 ± 0.029	0.39 ± 0.03	0.415 ± 0.03	0.445 ± 0.031	0.504 ± 0.032	ClC(Cl)Cl [trichloromethane] + CCCCn1cc[n+](C)c1.O=[N+]([O-])[O-]

Source: the NIST ThermoML archive (doi:10.1021/je200050q)
